Test results as given in US12281084B2, “Acetyl-CoA synthetase 2 (ACSS2) inhibitors and methods using same” (The Wistar Institute, priority 2019, dated 2025).

Tested on: BT474 tumors
Test: Targeted metabolomic analysis of 99 metabolites in BT474 tumors
Assay type: in vivo, mouse
Conditions: VY-3-135 vs vehicle
Experimental: All metabolomic experiments were performed in serum-like modified Eagle's medium (SMEM). SMEM contains 54 different nutrients that are found in the bloodstream at concentrations that are physiologically relevant to humans. SMEM was supplemented with 10% or 1% fetal bovine serum (FBS; Life Technologies). Cells were grown in normoxia (atmospheric oxygen) or hypoxia (1% oxygen) while being incubated in uniformly labeled ^13C2-acetate (0.100 mM; Cambridge Isotope Laboratories). Lengths of incubation are described in the figure legends. For extraction of metabolites from cultured cells, SMEM medium was aspirated and cells were washed once in ice-cold PBS. Metabolites were extracted by adding a solution of LC-MS grade methanol/acetonitrile/water (5:3:2) to the well. Plates were incubated at 4° C. for 5 minutes on a rocker and then the extraction solution was collected. The metabolite extract was cleared by centrifugation at 15,000×g for 10 minutes at 4° C. Supernatants were transferred to LC-MS silanized glass vials with PTFE caps and either run immediately on the LC-MS or stored at −80° C. For extraction of metabolites from tumors, tumor bearing mice were sacrificed by exsanguination under anesthesia and tumors were immediately excised and flash frozen in liquid nitrogen. Frozen tumors were weighed and then extracted at 40 mg/mL in extraction solution using a tissue homogenizer (Bullet Blender) and stainless steel beads. The metabolite extract was cleared twice by centrifugation at 15,000×g for 10 minutes at 4° C. Supernatants were transferred to LC-MS silanized glass vials with PTFE caps and either run immediately on the LC-MS or stored at −80° C.
LC-MS analysis was performed on a Q Exactive Hybrid Quadrupole-Orbitrap HF-X MS (ThermoFisher Scientific) equipped with a HESI II probe and coupled to a Vanquish Horizon UHPLC system (ThermoFisher Scientific). 0.002 ml of sample is injected and separated by HILIC chromatography on a ZIC-pHILIC 2.1-mm. Samples are separated by ammonium carbonate, 0.1% ammonium hydroxide, pH 9.2, and mobile phase B is acetonitrile. […] The relevant MS parameters were as listed: sheath gas, 40; auxiliary gas, 10; sweep gas, 1; auxiliary gas heater temperature, 350° C.; spray voltage, 3.5 kV for the positive mode and 3.2 kV for the negative mode. Capillary temperature was set at 325° C., and funnel RF level at 40. Samples were analyzed in full MS scan with polarity switching at scan range 65 to 975 m/z; 120,000 resolution; automated gain control (AGC) target of 1E6; and maximum injection time (max IT) of 100 milliseconds. Identification and quantitation of metabolites was performed using an annotated compound library and TraceFinder 4.1 software. The “M+X” nomenclature refers to the isotopolog for that given metabolite. Isotopologs are chemically identical metabolites that differ only in their number of carbon-13 atoms. For instance, “M+2 citrate” means that two of the six carbons in citrate are carbon-13 while the other four are carbon-12. “M+4 citrate” means that four of the six carbons in citrate are carbon-13 while the other two are carbon-12.
A targeted metabolomic analysis of 99 metabolites in vehicle versus VY-3-135 treated BT474 tumors was performed (FIG. 6E and Table 2).

Structure (SMILES): CCn1c(C(O)(c2ccccc2)c2ccccc2)nc2ccc(C(=O)NC[C@@H](C)O)cc21 [VY-3-135, (R)-1-ethyl-2-(hydroxydiphenylmethyl)-N-(2-hydroxypropyl)-1H-benzo[d]imidazole-6-carboxamide]
- Log2 FC (VY/Veh) 2-aminobutyrate: −0.5166
- Log2 FC (VY/Veh) 3 -hydroxybutryate: −1.001
- Log2 FC (VY/Veh) 3-phosphoglycerate: −0.5802
- Log2 FC (VY/Veh) 4-hydroxyproline: −0.725
- Log2 FC (VY/Veh) ADP: −1.452
- Log2 FC (VY/Veh) AMP: −0.6555
- Log2 FC (VY/Veh) ATP: −2.026
- Log2 FC (VY/Veh) CDP: −1.642
- Log2 FC (VY/Veh) CDP-choline: −2.603
- Log2 FC (VY/Veh) CDP-ethanolamine: −1.552
- Log2 FC (VY/Veh) CMP: −0.8199
- Log2 FC (VY/Veh) DHAP/G3P: −2.029
- Log2 FC (VY/Veh) FBP: −1.71
- Log2 FC (VY/Veh) GDP: −2.599
- Log2 FC (VY/Veh) GMP: −1.275
- Log2 FC (VY/Veh) GSH: −0.6903
- Log2 FC (VY/Veh) GSSG: 0.2094
- Log2 FC (VY/Veh) IMP: 1.067
- Log2 FC (VY/Veh) PEP: −1.207
- Log2 FC (VY/Veh) SAH: −0.3532
- Log2 FC (VY/Veh) SAM: −1.16
- Log2 FC (VY/Veh) UDP: −1.495
- Log2 FC (VY/Veh) UDP-GlcNAc: −0.8007
- Log2 FC (VY/Veh) UMP: −0.4024
- Log2 FC (VY/Veh) UTP: −2.182
- Log2 FC (VY/Veh) acetyl-aspartate: −0.7575
- Log2 FC (VY/Veh) acetyl-carnitine: −0.5449
- Log2 FC (VY/Veh) acetyl-glycine: −1.037
- Log2 FC (VY/Veh) acetyl-putrescine: −1.423
- Log2 FC (VY/Veh) adenine: 1.003
- Log2 FC (VY/Veh) adenosine: 1.879
- Log2 FC (VY/Veh) aketoglutarate: 0.9192
- Log2 FC (VY/Veh) alanine: −0.6739
- Log2 FC (VY/Veh) arginine: 0.7229
- Log2 FC (VY/Veh) arginosuccinate: −0.1741
- Log2 FC (VY/Veh) asparagine: −1.225
- Log2 FC (VY/Veh) aspartate: 0.009996
- Log2 FC (VY/Veh) betaine: −0.4739
- Log2 FC (VY/Veh) carbamoyl-asp: −0.787
- Log2 FC (VY/Veh) carnitine: −0.6768
- Log2 FC (VY/Veh) choline: −0.5304
- Log2 FC (VY/Veh) cis-aconitate: −0.2247
- Log2 FC (VY/Veh) citrate: −0.1134
- Log2 FC (VY/Veh) citrulline: −0.3937
- Log2 FC (VY/Veh) creatine: −0.5321
- Log2 FC (VY/Veh) creatinine: 0.01869
- Log2 FC (VY/Veh) cystathionine: −1.232
- Log2 FC (VY/Veh) cystine: −0.4837
- Log2 FC (VY/Veh) cytidine: 1.244
- Log2 FC (VY/Veh) cytosine: 1.232
- Log2 FC (VY/Veh) ethanolamine-P: −1.364
- Log2 FC (VY/Veh) glucose-6-P: 0.03691
- Log2 FC (VY/Veh) glucose/hexose: 0.9908
- Log2 FC (VY/Veh) glutamate: −0.5429
- Log2 FC (VY/Veh) glutamine: 0.09203
- Log2 FC (VY/Veh) glycerol: 0.1079
- Log2 FC (VY/Veh) glycerol-3-P: −0.8487
- Log2 FC (VY/Veh) glycine: −0.4034
- Log2 FC (VY/Veh) guanine: 1.969
- Log2 FC (VY/Veh) guanosine: 3.356
- Log2 FC (VY/Veh) histidine: −0.4238
- Log2 FC (VY/Veh) hypoxanthine: 0.3548
- Log2 FC (VY/Veh) isoleucine: −1.483
- Log2 FC (VY/Veh) lactate: −1.761
- Log2 FC (VY/Veh) leucine: −0.6361
- Log2 FC (VY/Veh) lysine: −1.026
- Log2 FC (VY/Veh) malate: 0.0239
- Log2 FC (VY/Veh) malonate: 0.1254
- Log2 FC (VY/Veh) methionine: −1.631
- Log2 FC (VY/Veh) methyl-lysine: −1.396
- Log2 FC (VY/Veh) myo-inositol: −0.4307
- Log2 FC (VY/Veh) niacin/nicotinate: 1.977
- Log2 FC (VY/Veh) nicotinamide: 0.1254
- Log2 FC (VY/Veh) nicotinamide N-oxide: 4.808
- Log2 FC (VY/Veh) ornithine: −0.7516
- Log2 FC (VY/Veh) pantothenate: −0.6181
- Log2 FC (VY/Veh) phenylalanine: −0.5091
- Log2 FC (VY/Veh) phosphocholine: −0.7924
- Log2 FC (VY/Veh) phosphocreatine: 0.324
- Log2 FC (VY/Veh) proline: −0.4024
- Log2 FC (VY/Veh) pyridoxine: 0.3808
- Log2 FC (VY/Veh) pyruvate: −0.8037
- Log2 FC (VY/Veh) riboflavin: −2.12
- Log2 FC (VY/Veh) ribose: −0.5026
- Log2 FC (VY/Veh) ribose-P: 0.2634
- Log2 FC (VY/Veh) sedoheptulose-P: −0.2584
- Log2 FC (VY/Veh) serine: 1.09
- Log2 FC (VY/Veh) succinate: −1.793
- Log2 FC (VY/Veh) succinyladenosine: −0.8738
- Log2 FC (VY/Veh) succinylcysteine: −0.9561
- Log2 FC (VY/Veh) succinylglutathione: −1.861
- Log2 FC (VY/Veh) taurine: 0.1159
- Log2 FC (VY/Veh) threonine: −0.9186
- Log2 FC (VY/Veh) thymidine: 2.328
- Log2 FC (VY/Veh) tryptophan: −0.2045
- Log2 FC (VY/Veh) tyrosine: −0.8432
- Log2 FC (VY/Veh) urate: −0.6288
- Log2 FC (VY/Veh) valine: −0.5942
- Log2 FC (VY/Veh) xanthine: −0.8286
